Where “and” joins values, the source holds several entries; their conditions need not be identical. Identical values can stand only once.
Tests used:
FSaIIC fibrosarcoma [1] = test: FSaIIC fibrosarcoma tumor growth delay; format: in vivo, mouse (male C3H/FeJ mice); conditions: for Tumor growth delay, UPHS/Air: UPHS 0.3 ml (12 ml/kg) i.v. immediately before drug; for Tumor growth delay, UPHS/Air / Tumor growth delay, alkylating agent (alone): air breathing; for Increase in tumor growth delay by addition of UPHS: UPHS + drug (air) vs drug alone; for Effect of carbogen breathing on tumor growth delay produced by drug / Tumor growth delay, Carbogen: no UPHS; for Effect of carbogen breathing on tumor growth delay produced by drug: vs drug with air; for Tumor growth delay, Carbogen: drug + carbogen breathing 6 hours; for Tumor growth delay, alkylating agent (alone): drug alone i.p.
Method: The FsaII fibrosarcoma (FSaIIC), adapted for growth in culture, was employed. See Rice, L. et al., "The Radiosensitivity of a Murine Fibrosarcoma as Measured by Three Cell Survival Assays", Br. J. Cancer 41:240-245 (1980). 2×10^6 FSaIIC cells, prepared from a brei of several stock tumors, were implanted intramuscularly into the legs of 8- to 10-week old male C3H/FeJ mice (The Jackson Laboratory, Bar Harbor, Me.). When the tumors were approximately 100 mm^3 in volume, 0.3 ml (12 ml/kg; 1.32 gm protein/kg) of UPHS was injected via the tail vein. The UPHS solution was obtained from Biopure Corporation, Boston, Mass. and was a polymerized form of a highly purified bovine hemoglobin solution. It contained 11±2 gm/deciliter of bovine hemoglobin. […] It contained sodium (145 mM/L), chloride (140 mM/L) and potassium (4.0 mM/L) in a buffer solution (pH 7.8±0.4). […] DeVenuto, F., "Evaluation of Human and Bovine Modified-Hemoglobin Solution as Oxygen-Carrying Fluid for Blood Volume Replacement", Biomat. Art. Cells, Art. Org. 16:77-82 (1988); and Winslow, R. M., "Optimal Hematologic Variables for Oxygen Transport Including p50, Hemoglobin Cooperativity, Hematocrit, Acid-Base Atatus, and Cardiac Function", Biomat., Art. Cells and Art. Organs 16:149-172 (1988).
CTX and PAM were purchased as pure powders from Sigma Chemical Company, St. Louis, Miss. […] BCNU (Carmustine) was purchased from the Dana-Farber Cancer Institute Pharmacy.
The mice were allowed to breathe air or were placed in a circulating atmosphere of 95% O2 /5% CO2 (carbogen) for six hours and then removed to air. The progress of each tumor was measured three times weekly until it reached a volume of 500 mm^3. Tumor growth delay was calculated as the days taken by each individual tumor to reach 500 mm^3 compared to the untreated controls. […] Days of tumor growth Relay are the mean ±SE for the treatment group compared to the control.
Statistical comparisons were made with Dunn Multiple Comparisons Test.
The procedures and materials of Example I were employed except that Fluosol-DA was substituted for UPHS. Fluosol-DA was obtained from Alpha Therapeutics Corporation and is an emulsion consisting of […] (w/v) of the following perfluorocarbons: 7 parts perfluorodecalin, 3 parts per perfluorotripropyliamine; Pluronic F-68 (2.7%, w/v); yolk phospholipids (0.4% w/v) as emulsifiers; and glycerol (0.8%, w/v) as a cryoprotective agent. The annex solution (electrolyte/bicarbonate solution) furnished the preparation with physiological osmolarity.
The specific procedures employing Fluosol-DA have been described previously. See Teicher, B. A. et al., "Approaches to Defining the Mechanism of Fluosol-DA 20%/Carbogen Enhancement of Melphalan Antitumor Activity", Cancer Res. 47:513-518 (1987); Teicher, B. A. et al., "Differential Enhancement of Melphalan Cytotoxicity in Tumor and Normal t+Tissue by Fluosol-DA and Oxygen Breathing", Int. J. Cancer 36:585-589 (1985); and Teicher, B. A. et al., "Effects of Various Oxygenation Conditions on the Enhancement by Fluosol-DA of Melphalan Antitumor Activity", Cancer Res. 47:5036-5041 (1987).

FSaIIC tumor cells = test: FSaIIC tumor excision / colony forming assay (tumor cell killing); format: in vivo, mouse; conditions: for FSaIIC cell killing by drug, dose dependence: drug alone, increasing dose; for Enhancement of tumor cell killing by UPHS at higher drug doses: higher doses of drug + UPHS vs drug alone
Method: The procedures and materials of Example I were employed, except as noted. In this Example, tumors were allowed to grow to approximately 100 mm^3 in volume, which took about one week after tumor cell implantation. At this time, 0.3 ml of UPHS was injected via the tail vein. Immediately afterward, PAM was administered by intraperitoneal injection. The animals were then allowed to breathe air or were placed in a circulating atmosphere of carbogen for 6 hours and then removed to air. The mice were sacrificed 24 hours after treatment to allow for full expression of drug cytotoxicity and repair of potentially lethal damage. The tumors were excised under sterile conditions and single cell suspensions were prepared for a colony forming assay. See Teicher, B. A. et al., "Approaches to Defining the Mechanism of Fluosol-DA 20%/Carbogen Enhancement of Melphalan Antitumor Activity", Cancer Res. 47:513-518 (1987); Teicher, B. A. et al., "Differential Enhancement of Melphalan Cytotoxicity in Tumor and Normal Tissue by Fluosol-DA and Oxygen Breathing", Int. J. Cancer 36:585-589 (1985); Teicher, B. A. et al., "Effects of Various Oxygenation Conditions on the Enhancement by Fluosol-DA of Melphalan Antitumor Activity", Cancer Res. 47:5036-5041 (1987); Teicher, B. A. and S. A. Holden, "A Survey of the Effect of Adding Fluosol-DA 20%/O2 to Treatment with Various Chemotherapeutic Agents", Cancer Treat. Rep. 71:173-177 (1987), Teicher, B. A. et al., "Effect of Various Oxygenation Conditions and Fluosol-DA on Cancer Chemotherapeutic Agents", Biomat., Art. Cells and Art. Organs 16:533-546 (1988). One week later, the plates were stained with crystal violet and colonies of more than 50 cells were counted.
The result for the tumor excision assays and bone marrow toxicity tests with PAM are plotted in FIG. 1 wherein the surviving fraction +SE of cells from the treated groups are compared to untreated controls.
The procedures and materials of Example II were employed except that CTX was administered instead of PAM.

[2] = test system: bone marrow granulocyte-macrophage colony forming units (CFU-GM); test: Bone marrow toxicity, CFU-GM colony forming assay; format: in vivo, mouse; conditions: drug + UPHS vs drug alone; PAM across entire dosage range
Method: The procedures and materials of Example I were employed, except as noted. In this Example, tumors were allowed to grow to approximately 100 mm^3 in volume, which took about one week after tumor cell implantation. At this time, 0.3 ml of UPHS was injected via the tail vein. Immediately afterward, PAM was administered by intraperitoneal injection. The animals were then allowed to breathe air or were placed in a circulating atmosphere of carbogen for 6 hours and then removed to air. The mice were sacrificed 24 hours after treatment to allow for full expression of drug cytotoxicity and repair of potentially lethal damage. The tumors were excised under sterile conditions and single cell suspensions were prepared for a colony forming assay. […] One week later, the plates were stained with crystal violet and colonies of more than 50 cells were counted.
Bone marrow toxicity was determined as follows. […] Colonies of at least 50 cells were scored on an acculite colony counter (Fisher, Springfield, N.J.). The results from three experiments, in which each group was measured in triplicate, were averaged. […]

FSaIIC fibrosarcoma [3] = conditions: cited from earlier work
FSaIIC fibrosarcoma [4] = test: FSaIIC fibrosarcoma tumor growth delay; format: in vivo, mouse (male C3H/FeJ mice); conditions: PAM 10 mg/kg + Fluosol-DA, carbogen 1 hour
[5] = PAM 10, CTX 150, CDDP 10, BCNU 15 mg/kg
[6] = UPHS + carbogen 6 h + drug vs drug alone

Compound: O=NN(CCCl)C(=O)NCCCl [BCNU, N,N-bis(2-chloroethyl)-N-nitrosourea]
- Tumor growth delay, UPHS/Air (FSaIIC fibrosarcoma [1]; [5]): 3.8 ± 0.5 days
- Increase in tumor growth delay by addition of UPHS (FSaIIC fibrosarcoma [1]): 1.5 fold
- Effect of carbogen breathing on tumor growth delay produced by drug (FSaIIC fibrosarcoma [1]; carbogen 6 hours): increased the tumor growth delay produced by BCNU to a small degree
- Tumor growth delay, Carbogen (FSaIIC fibrosarcoma [1]; [5]): 3.3 ± 0.3 days
- Tumor growth delay, alkylating agent (alone) (FSaIIC fibrosarcoma [1]; [5]): 2.5 ± 0.3 days and 2.5 days
- Increase in tumor growth delay by combination of UPHS and carbogen (FSaIIC fibrosarcoma [1]; mouse, in vivo): 2.3 fold

Compound: N.N.[Cl][Pt][Cl] [CDDP, cis-diaminodichloroplatinum(II)]
- Tumor growth delay, UPHS/Air (FSaIIC fibrosarcoma [1]; [5]): 9.6 ± 1.1 days
- Tumor growth delay, UPHS/Carbogen (FSaIIC fibrosarcoma [1]; UPHS 12 ml/kg i.v. + drug + carbogen breathing 6 hours, PAM 10, CTX 150, CDDP 10, BCNU 15 mg/kg): 14.1 ± 1.6 days and 14.1 days
- Increase in tumor growth delay by combination of UPHS and carbogen (FSaIIC fibrosarcoma [1]; [6]): 1.9 fold
- Increase in tumor growth delay by addition of UPHS (FSaIIC fibrosarcoma [1]): 1.3 fold
- Effect of carbogen breathing on tumor growth delay produced by drug (FSaIIC fibrosarcoma [1]; carbogen 6 hours): no significant effect on the tumor growth delay
- Tumor growth delay, Carbogen (FSaIIC fibrosarcoma [1]; [5]): 7.6 ± 0.3 days
- Tumor growth delay, alkylating agent (alone) (FSaIIC fibrosarcoma [1]; [5]): 7.4 ± 0.8 days and 7.4 days

Compound: O=P1(N(CCCl)CCCl)NCCCO1 (stereo not shown) [CTX, Cyclophosphamide]
- Increase in killing of FSaIIC cells by addition of UPHS (FSaIIC tumor cells; CTX 100 mg/kg + UPHS vs CTX alone): ~20 fold
- Greater kill of FSaIIC tumor cells with combined treatment (FSaIIC tumor cells; CTX 500 mg/kg (highest dose) + UPHS vs CTX alone): about 9 fold
- FSaIIC cell killing by drug, dose dependence (FSaIIC tumor cells): killed increasing numbers of FSaIIC cells with increasing doses
- Enhancement of tumor cell killing by UPHS at higher drug doses (FSaIIC tumor cells): the differential between tumor cell kill by CTX alone and CTX plus UPHS decreased as the dose of CTX was increased
- Increase in bone marrow CFU-GM killing / toxicity by addition of UPHS [2]: 2-3 fold
- Tumor growth delay, with Fluosol-DA and carbogen (FSaIIC fibrosarcoma [1]; CTX 150 mg/kg + Fluosol-DA, carbogen 6 hours): about 12 days
- Tumor growth delay, UPHS/Air (FSaIIC fibrosarcoma [1]; [5]): 7.4 days and 7.4 ± 0.7 days
- Increase in tumor growth delay by combination of UPHS and carbogen (FSaIIC fibrosarcoma [1]; [6]): 4.6 fold
- Increase in tumor growth delay by addition of UPHS (FSaIIC fibrosarcoma [1]): 2.1 fold
- Effect of carbogen breathing on tumor growth delay produced by drug (FSaIIC fibrosarcoma [1]; carbogen 6 hours): small increase in the tumor growth delay
- Tumor growth delay, Carbogen (FSaIIC fibrosarcoma [1]; [5]): 5.0 ± 0.5 days
- Duration of carbogen breathing necessary for significant enhancement of growth delay (FSaIIC fibrosarcoma [3]; FSaIIC, CTX): Six hours of carbogen breathing are necessary to obtain a significant enhancement in the growth delay

Compound: N[C@@H](Cc1ccc(N(CCCl)CCCl)cc1)C(=O)O [PAM, Melphalan]
- Tumor growth delay, with Fluosol-DA and carbogen (FSaIIC fibrosarcoma [4]): about 9.5 days
- Increase in tumor cell killing by addition of UPHS (FSaIIC tumor cells; PAM 10 mg/kg + UPHS vs PAM alone): ~10 fold
- FSaIIC cell killing by drug, dose dependence (FSaIIC tumor cells): killed FSaIIC cells in a log-linear manner with increasing dose
- Enhancement of tumor cell killing by UPHS at higher drug doses (FSaIIC tumor cells): the enhancement in tumor cell killing with the combination treatment disappeared
- Increase in bone marrow CFU-GM killing / toxicity by addition of UPHS [2]: 3 fold
- Tumor growth delay, with Fluosol-DA and air breathing (FSaIIC fibrosarcoma [1]; PAM 10 mg/kg + Fluosol-DA, air): about 6.5 days
- Increase in tumor growth delay by combination of UPHS and carbogen (FSaIIC fibrosarcoma [1]; [6]): 3.6 fold
- Increase in tumor growth delay by addition of UPHS (FSaIIC fibrosarcoma [1]): 2.2 fold
- Effect of carbogen breathing on tumor growth delay produced by drug (FSaIIC fibrosarcoma [1]; carbogen 6 hours): small increase in tumor growth delay
- Tumor growth delay, Carbogen (FSaIIC fibrosarcoma [1]; [5]): 4.0 ± 0.6 days
- Effect of extending carbogen breathing to 6 hours on tumor growth delay (FSaIIC fibrosarcoma [3]; PAM + Fluosol-DA, carbogen 6 hours): did not alter the tumor growth delay
- Tumor growth delay, PAM prepared in Fluosol-DA as a vehicle (FSaIIC fibrosarcoma [3]; PAM in Fluosol-DA vehicle, carbogen breathing): about 29.5 days

— patent publication US5679638A, “Method for treating a tumor with a chemotherapeutic agent” (Biopure Corporation, priority 1993, dated 1997)
